Measurements: patent US9868711B2, “Phenazine-3-one and phenothiazine-3-one derivatives for treatment of oxidative stress disorders” (BioElectron Technology Corporation, priority 2013, dated 2018)
Like-named read-outs stand apart in the source and are kept apart here.

Test system: Human dermal fibroblasts from Friedreich's Ataxia patients
Assay: Rescue of FRDA fibroblasts stressed by BSO (Calcein AM viability)
Format: cell-based
Conditions: FRDA fibroblasts GM04078, 1 mM BSO, 48 h
Experimental: An initial screen was performed to identify compounds effective for the amelioration of redox disorders. Test samples, 4 reference compounds (idebenone, decylubiquinone, Trolox and alpha-tocopherol), and solvent controls were tested for their ability to rescue FRDA fibroblasts stressed by addition of L-buthionine-(S,R)-sulfoximine (BSO), as described in Jauslin et al., Hum. Mol. Genet. 11(24):3055 (2002), Jauslin et al., FASEB J. 17:1972-4 (2003), and International Patent Application WO 2004/003565. […] This specific BSO-mediated cell death can be prevented by administration of antioxidants or molecules involved in the antioxidant pathway, such as alpha-tocopherol, selenium, or small molecule glutathione peroxidase mimetics. However, antioxidants differ in their potency, i.e. the concentration at which they are able to rescue BSO-stressed FRDA fibroblasts.
MEM (a medium enriched in amino acids and vitamins, catalog no. 1-31F24-I) and Medium 199 (M199, catalog no. 1-21F22-I) with Earle's Balanced Salts, without phenol red, were purchased from Bioconcept. Fetal Calf Serum was obtained from PAA Laboratories. Basic fibroblast growth factor and epidermal growth factor were purchased from PeproTech. Penicillin-streptomycin-glutamine mix, L-buthionine (S,R)-sulfoximine, (+)-alpha-tocopherol, decylubiquinone, and insulin from bovine pancreas were purchased from Sigma. Trolox (6-Hydroxy-2,5,7,8-tetramethylchromane-2-carboxylic acid) was obtained from Fluka. Idebenone was obtained from Chemo Iberica. Calcein AM was purchased from Anaspec. Cell culture medium was made by combining 125 ml M199 EBS, 50 ml Fetal Calf Serum, 100 U/ml penicillin, 100 microgram/ml streptomycin, 2 mM glutamine, 10 microgram/ml insulin, 10 ng/ml EGF, and 10 ng/ml bFGF; MEM EBS was added to make the volume up to 500 ml. A 10 mM BSO solution was prepared by dissolving 444 mg BSO in 200 ml of medium (Invitrogen, Carlsbad, Ca.) with subsequent filter-sterilization. During the course of the experiments, this solution was stored at +4° C. The cells were obtained from the Coriell Cell Repositories (Camden, N.J.; repository number GM04078) and grown in 10 cm tissue culture plates. Every third day, they were split at a 1:3 ratio.
The test samples were supplied in 1.5 ml glass vials. The compounds were diluted with DMSO, ethanol or PBS to result in a 5 mM stock solution. Once dissolved, they were stored at −20° C. Reference antioxidants (idebenone, decylubiquinone, alpha-tocopherol and Trolox) were dissolved in DMSO.
Test samples were screened according to the following protocol:
A culture with FRDA fibroblasts was started from a 1 ml vial with approximately 500,000 cells stored in liquid nitrogen. Cells were propagated in 10 cm cell culture dishes by splitting every third day in a ratio of 1:3 until nine plates were available. Once confluent, fibroblasts were harvested. For 54 micro titer plates (96 well-MTP) a total of 14.3 million cells (passage eight) were re-suspended in 480 ml medium, corresponding to 100 microliters medium with 3,000 cells/well. The remaining cells were distributed in 10 cm cell culture plates (500,000 cells/plate) for propagation. The plates were incubated overnight at 37° C. in a atmosphere with 95% humidity and 5% CO2 to allow attachment of the cells to the culture plate.
10% DMSO (242.5 microliters) was added to a well of the microtiter plate. The test compounds were unfrozen, and 7.5 microliters of a 5 mM stock solution was dissolved in the well containing 242.5 microliters of 10% DMSO, resulting in a 150 micromolar master solution. Serial dilutions from the master solution were made. The period between the single dilution steps was kept as short as possible (generally less than 30 seconds). At least 4 hours after attachment into MTP, cells were then treated with the various compound dilutions.
Plates were kept overnight in the cell culture incubator. […]

[1] = Homo sapiens, average, compounds of the invention, read-out: Ec50 Average

Cc1cc(=O)c(C)c2sc3ccccc3nc1-2 [Compound 1]
EC50 [1]: 0.003 µM

CN(C)c1ccc2nc3ccc(=O)cc-3sc2c1 [Compound 2]
EC50 [1]: 0.003 µM

O=c1ccc2nc3ccc(C(F)(F)F)cc3sc-2c1 [Compound 3]
EC50 [1]: 0.028 µM

COC1=C(OC)C(=O)C(CCCCCCCCCCO)=C(C)C1=O [Idebenone]
EC50 (Homo sapiens, third of three experiments, read-out: EC50 Value 3): 1 µM

Cc1c(C)c2c(c(C)c1O)CCC(C)(C(=O)O)O2 (stereo not drawn) [Trolox, 6-Hydroxy-2,5,7,8-tetramethylchromane-2-carboxylic acid]
EC50 (Homo sapiens, first of three experiments, read-out: EC50 Value 1): 9 µM

Cc1c(C)c2c(c(C)c1O)CC[C@@](C)(CCC[C@H](C)CCC[C@H](C)CCCC(C)C)O2 [alpha-tocopherol]
EC50 (average of three values, control compounds, read-out: EC50 Average): 0.3 µM | EC50 (first of three experiments, read-out: EC50 Value 1): 0.4 µM | EC50 (second of three experiments, read-out: EC50 Value 2): 0.15 µM | EC50 (third of three experiments, read-out: EC50 Value 3): 0.35 µM
